Results: patent US6602870B2, “Oral dosage form for administration of the combination of tegafur, uracil, folinic acid, and oxaliplatin and method of using the same” (Bristol-Myers Squibb Company, priority 2000, dated 2003)
Where “and” joins values, the source holds several entries; their conditions need not be identical. Equal entries are not always repeated.

Key:
[1] = tested on: human HT29 colorectal tumor cell xenografts; assay: Growth inhibition study in nude mice transplanted with human HT29 colorectal tumor cell xenografts; format: in vivo
Description: Growth inhibition studies were performed using nude mice transplanted with human HT29 colorectal tumor cell xenografts and 1) not treated (control group), or treated 2) with oral UFT (20 mg/kg/day) and calcium folinate (4 mg/kg/day) for 28 days; 3) intraperitonealy with oxaliplatin (10 mg/kg at day 1), or 4) with a combination of oxaliplatin with UFT and calcium folinate. Tumor measurements were performed twice a week, and animals were sacrificed at day 28. The tumors were excised and weighed. Two separate experiments were performed, for a total number of 25 animals in each group.
Human colorectal cancer HT29 cells, obtained from Dr. J. Fogh (Sloan Kettering Institute for Cancer Research, N.Y.), were cultured in DMEM (Dulbeccos modified Eagle's medium, Eurobio, Paris, France), supplemented with 10% heat-decomplemented fetal bovine serum (Boehringer, Manheim, Germany), 100 U/ml penicillin, 100 μg/ml streptomycin and […] glutamine. Cells were grown at 37° C. in a humidified atmosphere containing 5% CO2. The medium was renewed every 2 days, and the cells were passaged twice a week by trypsin/EDTA to maintain the cells in exponential growth.
Female BALB/c nude (nu+/nu+) aged 6 weeks were maintained in pathogen free state. Human HT29 colorectal xenograft (1×10^6 cells) was transplanted sub-cutaneously into the hind limb of each animal. Treatment was initiated 14 days later when the tumor became easily palpable and measurable (mean size of tumor surface=33 mm^2).
Oxaliplatin was administered intraperitoneally at a dose of 10 mg/kg day 1. […]
Two axes (mm) of tumor (the longest axis and the axis perpendicular to the longest axis) were measured with a caliper. Tumor measurements and body weights were recorded twice a week. […] Toxicity was evaluated in terms of body weight ratio (Wn/Wo) and mortality; Wn is the body weight measured n days after the initial administration, while Wo is the body weight at the start of administration. […] Results are expressed as mean weight (grams)±standard deviation. […]

[2] = Toxicity (body weight ratio, mortality) in HT29 xenograft nude mice; format: in vivo; conditions: day 28 before sacrifice; 25 animals per group
Description: Tumor measurements and body weights were recorded twice a week. […] For each experiment, the same observer made all measurements to minimize variations. Toxicity was evaluated in terms of body weight ratio (Wn/Wo) and mortality; Wn is the body weight measured n days after the initial administration, while Wo is the body weight at the start of administration. […] Two consecutive experiments gave similar data, and results represent the average of all data for a total of 25 animals per group. The means of each of the four groups were compared using the one-way analysis of variance. The Barlett's test was used for homogeneity of variances and the Tukey-Kramer multiple comparison test for inter-group comparison. Data analysis was performed using an IBM PC. Statistical analysis and graphs were performed using Instat and Prism software (GraphPad, San Diego, Calif.).
Body weight was evaluated in terms of the ratio of body weight measured n days after treatment (Wn) as compared to the body weight at the start of treatment (Wo). All animals (25 per group) were weighed twice a week.

SMILES: O=C1[O][Pt]2([NH][C@@H]3CCCC[C@H]3[NH]2)[O]C1=O [oxaliplatin, [(1R, 2R)-1,2-cyclohexanediamine-N,N′][oxalato(2-)-O, O′]platinum]
- Decrease of tumor size (tumor growth inhibition) as compared to control ([1]; day 28, FIG. 1): 24%
- Tumor weight decrease as compared to control ([1]; day 28, same doses): 29.9% and 30%
- Mean tumor weight ([1]; tumors excised 28 days after treatment initiation, 25 animals per group, UFT 20 mg/kg/day + calcium folinate 4 mg/kg/day oral day 1-28, oxaliplatin 10 mg/kg i.p. day 1): 2.03 ± 0.14 g
- Body Weight Ratio (Wn/Wo) [2]: 1.05 ± 0.09
